Columns and labels:
Assay type in all cases: in vivo
[1] = system: CYPIR (Cyperus iria L., rice flatsedge); assay: Postemergence foliar-applied herbicidal mixtures, direct seeded rice, greenhouse (Example I)
[2] = system: SASKR (Salsola iberica (L.), Russian thistle); assay: Postemergence foliar-applied herbicidal mixtures, cereal crops, greenhouse (Example III); settings: Compound A Benzyl Ester 5 gai/ha, visual score 0 to 100 percent after 20-22 days
Protocol: (§1) Seeds of the desired test plant species were planted in Sun Gro MetroMix® 306 planting mixture, which typically has a pH of 6.0 to 6.8 and an organic matter content of about 30 percent, in plastic pots with a surface area of 103.2 square centimeters (cm^2). […] The plants were grown for 7-36 days in a greenhouse with an approximate 14 hour photoperiod which was maintained at about 18° C. during the day and about 17° C. during the night. Nutrients and water were added on a regular basis and supplemental lighting was provided with overhead metal halide 1000-Watt lamps as necessary. The plants were employed for testing when they reached the second or third true leaf stage.
(§2) Treatments consisted of the benzyl ester of 4-amino-3-chloro-5-fluoro-6-(4-chloro-2-fluoro-3-methoxy-phenyl)pyridine-2-carboxylic acid (Compound A), formulated as an SC, a second cereal herbicide alone and then both in combination.
(§3) Other herbicidal components were applied on an active ingredient basis and included acetolactate synthase (ALS)-inhibiting herbicides (sulfonamide chemical class) florasulam formulated as Derby® and pyroxsulam formulated as PowerFlex®. A measured aliquot of benzyl ester of 4-amino-3-chloro-5-fluoro-6-(4-chloro-2-fluoro-3-methoxy-phenyl)pyridine-2-carboxylic acid (Compound A) was placed in 25 milliliter (mL) glass vials and diluted in a volume of 1.25% (v/v) AgriDex® crop oil concentrated to obtain a stock solution. Compound requirements are based upon a 12 mL application volume at a rate of 187 liters per hectare (L/ha). […] Formulated compounds were applied to the plant material with an overhead Mandel track sprayer equipped with an 8002E nozzle calibrated to deliver 187 L/ha over an application area of 0.503 square meters (m^2) at a spray height of 18 inches (46 cm) above average plant canopy. Control plants were sprayed in the same manner with the solvent blank.
(§4) The treated plants and control plants were placed in a greenhouse as described above and watered by sub-irrigation to prevent wash-off of the test compounds. After 20-22 days, the condition of the test plants as compared with that of the control plants was determined visually and scored on a scale of 0 to 100 percent where 0 corresponds to no injury and 100 corresponds to complete kill.
(§5) Colby's equation was used to determine the herbicidal effects expected from the mixtures (Colby, S. R. 1967. Calculation of the synergistic and antagonistic response of herbicide combinations. Weeds 15:20-22.).
(§6) The following equation was used to calculate the expected activity of mixtures containing two active ingredients, A and B: Expected=A+B−(A×B/100)

[3] = system: VIOTR (Viola tricolor (L.), wild pansy); assay: as above; settings: Compound A Benzyl Ester 5 gai/ha, visual score 0 to 100 percent after 20-22 days
Protocol: as §1, §2, §3, §4, §5, §6

[4] = system: MATCH (Chamomilla chamomilla (L.) Rydb., scented mayweed); assay: as above; settings: Compound A Benzyl Ester 5 gai/ha, visual score 0 to 100 percent after 20-22 days
Protocol: as §1, §2, §3, §4, §5, §6

[5] = system: VERPE (Veronica persica Poir., bird's-eye speedwell); assay: as above; settings: visual score 0 to 100 percent after 20-22 days
Protocol: as §1, §2, §3, §4, §5, §6

[6] = system: LAMPU (Lamium purpureum (L.), purple deadnettle); assay: as above; settings: Compound A Benzyl Ester 8.75 gai/ha, visual score 0 to 100 percent after 20-22 days
Protocol: as §1, §2, §3, §4, §5, §6

[7] = system: CIRAR (Cirsium arvense (L.) Scop., Canada thistle); assay: as above
Protocol: as §1, §2, §3, §4, §5, §6

[8] = system: ECHCG (Echinochloa crusgalli (L.) Beauv., barnyardgrass); assay: Postemergence foliar-applied herbicidal mixtures, direct seeded rice, greenhouse (Example I)

Row | SMILES | Visual Weed Control (%) - 20 DAA CYPIR Obs ([1]; Compound A Benzyl Ester 4.38 gae/ha) | Visual Weed Control (%) - 22 DAA CYPIR Obs ([1]; Compound A Benzyl Ester 8 gae/ha) | Visual Weed Control (%) - 20 DAA CYPIR Obs ([1]; Compound A Benzyl Ester 8.75 gae/ha) | Visual Weed Control (%) - 22 DAA CYPIR Obs ([1]; Compound A Benzyl Ester 16 gae/ha) | Visual Weed Control (%) - 20 DAA CYPIR Obs ([1]; Compound A Benzyl Ester 17.5 gae/ha) | SASKR Obs [2] | VIOTR Obs [3] | MATCH Obs [4] | VERPE Obs ([5]; Compound A Benzyl Ester 5 gai/ha) | VERPE Obs ([5]; Compound A Benzyl Ester 8.75 gai/ha) | LAMPU Obs [6] | CIRAR Obs ([7]; Compound A Benzyl Ester 5 gai/ha, visual score 0 to 100 percent after 20-22 days) | CIRAR Obs ([7]; Compound A Benzyl Ester 8.75 gai/ha, visual score after 20-22 days, Table 17) | CIRAR Obs ([7]; Compound A Benzyl Ester 8.75 gai/ha, visual score after 20-22 days, Table 18) | Visual Weed Control (%) - 27 DAA ECHCG Obs ([8]; Penoxsulam 4.38 gai/ha) | Visual Weed Control (%) - 27 DAA ECHCG Obs ([8]; Penoxsulam 8.75 gai/ha)
1 | COc1c(Cl)ccc(-c2nc(C(=O)OCc3ccccc3)c(Cl)c(N)c2F)c1F [Compound A Benzyl Ester, benzyl ester of 4-amino-3-chloro-5-fluoro-6-(4-chloro-2-fluoro-3-methoxy-phenyl)pyridine-2-carboxylic acid] | 15% | 20% | 60% | 85% | 90% | 57% | 13% | 13% | 37% | 50% | 83% | 40% | 40% | 40% | – | –
2 | COc1cnc(OC)n2nc(NS(=O)(=O)c3c(OCC(F)F)cccc3C(F)(F)F)nc12 [Penoxsulam, 2-(2,2-difluoroethoxy)-N-(5,8-dimethoxy[1,2,4]triazolo[1,5-c]pyrimidin-2-yl)-6-(trifluoromethyl)benzenesulfonamide, reference compound] | – | – | – | – | – | – | – | – | – | – | – | – | – | – | 0% | 30%

From patent publication US8906825B2, “Herbicidal compositions comprising 4-amino-3-chloro-5-fluoro-6-(4-chloro-2-fluoro-3-methoxyphenyl) pyridine-2-carboxylic acid or a derivative thereof and triazolopyrimidine sulfonamides” (Dow AgroSciences LLC, priority 2012, dated 2014)
